Biological target: T1, luciferase (Photinus pyralis, UniProt P08659)
T1 construct: purchased Analytical Luminescent Laboratories (ALL), Sparks, Maryland #2005
Assay: luminescence from the reaction between ATP and a luciferase/luciferin reactant system loaded on reagent discs
Type: biochemical
From the text: FIG. 11 is a plot of relative luminescent intensity for reactant mixtures prepared with (♦) and without (▪) trehalose in the reactant loading solution for use with the device of FIG. 1.
FIG. 12 is a plot of luminescent intensity as a function of the concentration of trehalose in the reactant solution for use with the device of FIG. 1.
As discussed above, the inherent chemical and mechanical stability of the polymeric material is ideally suited for use as a medium on which to load the chemiluminescent reagents for the practice of the present invention. A number of commercial enterprises market luciferin-luciferase reagent kits for use in chemiluminescent reaction assays. One that the inventors have found to be particularly well suited for the practice of the present invention is the “Firelight®” luciferin-luciferase reagent kit provided by Analytical Luminescent Laboratories (ALL) of Sparks, Maryland. […] This provides for a greater intensity of luminescence, and faster reaction kinetics.
In the preparation of the reagent discs 48, the reactant concentrate is loaded, preferably drop-wise, onto the Merocel® CF50, obtained in pre-sterilized sheets. The coated sheets are then dried at ambient temperatures under a vacuum, and the reagent discs are cut from the sheets in an appropriate size and shape. Alternatively, discs may be cut first and then loaded with appropriate reagent solution. When loaded in such fashion with the reagent mixture, reagent discs, approximately 6 mm in diameter and approximately 1.5 mm in height, carry approximately 0.5 mg of the dried reactant mixture.
It is recognized in the prior art that trehalose will stabilize delicate materials while they are freeze-dried. Freeze drying as a technique was devised as being the only way certain sensitive materials can be handled. Ordinary drying at ambient or elevated temperature and at atmospheric or reduced pressure causes irreversible degradation of very many such substances, so much so that it has been accepted that sensitive proteins must not be dried at ambient temperature. […]

T1 sequence (P08659 whole entry): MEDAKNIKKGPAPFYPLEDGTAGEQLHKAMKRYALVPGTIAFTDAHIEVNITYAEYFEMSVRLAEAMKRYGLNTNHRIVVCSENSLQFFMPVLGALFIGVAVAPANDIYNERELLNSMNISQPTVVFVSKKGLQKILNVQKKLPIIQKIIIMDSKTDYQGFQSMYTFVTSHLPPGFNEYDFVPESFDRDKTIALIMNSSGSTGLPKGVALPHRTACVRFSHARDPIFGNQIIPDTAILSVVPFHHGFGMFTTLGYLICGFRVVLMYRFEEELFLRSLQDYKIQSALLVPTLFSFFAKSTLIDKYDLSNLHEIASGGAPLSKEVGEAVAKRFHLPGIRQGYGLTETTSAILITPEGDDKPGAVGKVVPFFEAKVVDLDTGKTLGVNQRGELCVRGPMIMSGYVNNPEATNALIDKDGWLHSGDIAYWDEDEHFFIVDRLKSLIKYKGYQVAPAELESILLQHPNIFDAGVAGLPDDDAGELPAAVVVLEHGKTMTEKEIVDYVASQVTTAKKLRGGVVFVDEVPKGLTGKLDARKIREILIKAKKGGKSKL

OC[C@H]1O[C@H](O[C@H]2O[C@H](CO)[C@@H](O)[C@H](O)[C@H]2O)[C@H](O)[C@@H](O)[C@@H]1O [trehalose, a-D-glucopyranosyl-a-D-glucopyranoside]
observed luminescent intensities versus the same loading of reagents without the trehalose (6 mm×1.5 mm reagent disc, total loading approximately 4 mg including trehalose, FIG. 12): more than twice | stabilization effect on the chemiluminescent reactant mixture (reactant mixtures prepared with and without trehalose in the loading solution, FIG. 11): measurable stabilization effect | biochemical activity of the luciferase component of the reagent mixture (trehalose added to the loading solution at levels approaching its saturation solubility): up to a doubling, or more

Reference: US20010046687A1, “Method for the enhancement of luminescence intensity from a reaction between adenosine triphosphate (ATP) and a luciferase/luciferin reactant system” (priority 2000, published 2001)
